Test results reported in patent US20230167088A1, “1-PYRAZINYLPYRAZOLYL-3-OXYALKYL ACIDS AND THEIR DERIVATIVES, AND THEIR USE FOR CONTROL OF UNDESIRED PLANT GROWTH” (BAYER AKTIENGESELLSCHAFT, priority 2020, published 2023).

Legend:
AVEFA [1] = experiment: Herbicidal post-emergence action 1a (greenhouse pots, visual rating); assay type: in vivo, Avena fatua; conditions: rated visually about 3 weeks after treatment, 100% = plants have died, 0% = like control plants
Outline: (§1)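 Visual scoring versus untreated plants (100% = plants dead, 0% = as control) followed roughly 3 weeks in the greenhouse after treatment. Plants grown in sandy loam pots had been sprayed on green parts at the one-leaf stage, 2–3 weeks post-sowing, with aqueous WP/EC preparations containing 0.5% additive, 600 l/ha, at 320 and/or 80 g/ha.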

VERPE [2] = experiment: Herbicidal pre-emergence action 2a (greenhouse pots, visual scoring); assay type: in vivo, Veronica persica; conditions: dosage 320 g/ha, visual scoring after about 3 weeks vs untreated controls
Outline: (§2)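 Percent effect (0% like control, 100% plants died) was scored by eye roughly 3 weeks post-application. Formulated compound went onto the soil covering freshly sown seeds in water at 600 l/ha with 0.5% additive; dose 320 g/ha and/or 80 g/ha.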

ALOMY [3] = experiment: as above; assay type: in vivo, Alopecurus myosuroides; conditions: dosage 320 g/ha, visual scoring after about 3 weeks
Outline: as §2

POLCO [4] = experiment: Herbicidal post-emergence action 1a (greenhouse pots, visual rating); assay type: in vivo, Polygonum convolvulus; conditions: visual rating about 3 weeks after treatment
Outline: as §1

AVEFA [5] = experiment: Herbicidal pre-emergence action 2a (greenhouse pots, visual scoring); assay type: in vivo, Avena fatua; conditions: dosage 320 g/ha, visual scoring after about 3 weeks
Outline: as §2

PHBPU [6] = experiment: as above; assay type: in vivo, Pharbitis purpurea; conditions: dosage 320 g/ha, visual scoring after about 3 weeks vs untreated controls
Outline: as §2

MATIN [7] = experiment: Herbicidal post-emergence action 1a (greenhouse pots, visual rating); assay type: in vivo, Matricaria inodora; conditions: visual rating about 3 weeks after treatment
Outline: as §1

AMARE [8] = experiment: as above; assay type: in vivo, Amaranthus retroflexus; conditions: visual rating about 3 weeks after treatment
Outline: as §1

PHBPU [9] = experiment: as above; assay type: in vivo, Pharbitis purpurea; conditions: visual rating about 3 weeks after treatment
Outline: as §1

POLCO [10] = experiment: Herbicidal pre-emergence action 2a (greenhouse pots, visual scoring); assay type: in vivo, Polygonum convolvulus; conditions: dosage 320 g/ha, visual scoring after about 3 weeks vs untreated controls
Outline: as §2

AMARE [11] = experiment: as above; assay type: in vivo, Amaranthus retroflexus; conditions: dosage 320 g/ha, visual scoring after about 3 weeks vs untreated controls
Outline: as §2

ABUTH [12] = experiment: as above; assay type: in vivo, Abutilon theophrasti; conditions: dosage 320 g/ha, visual scoring after about 3 weeks vs untreated controls
Text: [table] a) Seeds of monocotyledonous and dicotyledonous weed plants and crop plants are placed in plastic or organic plant pots and covered with soil. The compounds of the invention, formulated in the form of wettable powders (WP) or as emulsion concentrates (EC), are then applied onto the surface of the covering soil as aqueous suspension or emulsion with addition of 0.5% additive at a water application rate of 600 1/ha (converted). After the treatment, the pots are placed in a greenhouse and kept under good growth conditions for the trial plants. After about 3 weeks, the effect of the preparations is scored visually in comparison with untreated controls as percentages. For example, 100% activity=the plants have died, 0% activity=like control plants. Tables B1 to B15 below show the effects of selected compounds of the general formula (I) according to Tables 1 and 2 on various harmful plants and an application rate corresponding to 320 g/ha and/or 80 g/ha, which were obtained by the experimental procedure mentioned above.

ABUTH [13] = experiment: Herbicidal post-emergence action 1a (greenhouse pots, visual rating); assay type: in vivo, Abutilon theophrasti; conditions: visual rating about 3 weeks after treatment
Outline: as §1

SETVI [14] = experiment: Herbicidal pre-emergence action 2a (greenhouse pots, visual scoring); assay type: in vivo, Setaria viridis; conditions: dosage 320 g/ha, visual scoring after about 3 weeks vs untreated controls
Outline: as §2

LOLRI [15] = experiment: Herbicidal post-emergence action 1a (greenhouse pots, visual rating); assay type: in vivo, Lolium rigidum; conditions: rated visually about 3 weeks after treatment, 100% = plants have died, 0% = like control plants
Outline: as §1

LOLRI [16] = experiment: Herbicidal pre-emergence action 2a (greenhouse pots, visual scoring); assay type: in vivo, Lolium rigidum; conditions: dosage 320 g/ha, visual scoring after about 3 weeks vs untreated controls
Outline: as §2

VERPE [17] = experiment: Herbicidal post-emergence action 1a (greenhouse pots, visual rating); assay type: in vivo, Veronica persica; conditions: visual rating about 3 weeks after treatment
Outline: as §1

ECHCG [18] = experiment: Herbicidal pre-emergence action 2a (greenhouse pots, visual scoring); assay type: in vivo, Echinochloa crus-galli; conditions: dosage 320 g/ha, visual scoring after about 3 weeks
Outline: as §2

ECHCG [19] = experiment: Herbicidal post-emergence action 1a (greenhouse pots, visual rating); assay type: in vivo, Echinochloa crus-galli; conditions: rated visually about 3 weeks after treatment, 100% = plants have died, 0% = like control plants
Outline: as §1

SETVI [20] = experiment: as above; assay type: in vivo, Setaria viridis; conditions: rated visually about 3 weeks after treatment, 100% = plants have died, 0% = like control plants
Outline: as §1

ALOMY [21] = experiment: as above; assay type: in vivo, Alopecurus myosuroides; conditions: rated visually about 3 weeks after treatment, 100% = plants have died, 0% = like control plants
Outline: as §1

MATIN [22] = experiment: Herbicidal pre-emergence action 2a (greenhouse pots, visual scoring); assay type: in vivo, Matricaria inodora; conditions: dosage 320 g/ha, visual scoring after about 3 weeks vs untreated controls
Outline: as §2

Compound	Post-emergence action against AVEFA in % (AVEFA [1]; Dosage 80 g/ha) [%]	Post-emergence action against AVEFA in % (AVEFA [1]; Dosage 320 g/ha) [%]	Pre-emergence action against VERPE in % (VERPE [2]) [%]	Pre-emergence action against ALOMY in % (ALOMY [3]) [%]	Post-emergence action against POLCO in % (POLCO [4]; dosage 80 g/ha) [%]	Post-emergence action against POLCO in % (POLCO [4]; dosage 320 g/ha) [%]	Pre-emergence action against AVEFA in % (AVEFA [5]) [%]	Pre-emergence action against PHBPU in % (PHBPU [6]) [%]	Post-emergence action against MATIN in % (MATIN [7]; dosage 80 g/ha) [%]	Post-emergence action against MATIN in % (MATIN [7]; dosage 320 g/ha) [%]	Post-emergence action against AMARE in % (AMARE [8]; dosage 80 g/ha) [%]	Post-emergence action against AMARE in % (AMARE [8]; dosage 320 g/ha) [%]	Post-emergence action against PHBPU in % (PHBPU [9]; dosage 80 g/ha) [%]	Post-emergence action against PHBPU in % (PHBPU [9]; dosage 320 g/ha) [%]	Pre-emergence action against POLCO in % (POLCO [10]) [%]	Pre-emergence action against AMARE in % (AMARE [11]) [%]	Pre-emergence action against ABUTH in % (ABUTH [12]) [%]	Pre-emergence action against SETVI in % (SETVI [14]) [%]	Post-emergence action against LOLRI in % (LOLRI [15]; Dosage 80 g/ha) [%]	Post-emergence action against LOLRI in % (LOLRI [15]; Dosage 320 g/ha) [%]	further results
COC(=O)[C@@H](C)Oc1nn(-c2cnccn2)c(-c2cncc(F)c2)c1Cl [Example I-95]	80	90	100	100	90	90	90	90	80	90	90	90	90	90	100	100	90	100	90	90	Post-emergence action against ABUTH in % (ABUTH [13]; dosage 80 g/ha): 90%; Post-emergence action against ABUTH in % (ABUTH [13]; dosage 320 g/ha): 90%; Pre-emergence action against LOLRI in % (LOLRI [16]): 100%; Post-emergence action against VERPE in % (VERPE [17]; dosage 80 g/ha): 90%; Post-emergence action against VERPE in % (VERPE [17]; dosage 320 g/ha): 90%; Pre-emergence action against ECHCG in % (ECHCG [18]): 100%; Post-emergence action against ECHCG in % (ECHCG [19]; Dosage 80 g/ha): 90%; Post-emergence action against ECHCG in % (ECHCG [19]; Dosage 320 g/ha): 90%; Post-emergence action against SETVI in % (SETVI [20]; Dosage 80 g/ha): 90%; Post-emergence action against SETVI in % (SETVI [20]; Dosage 320 g/ha): 90%; Post-emergence action against ALOMY in % (ALOMY [21]; Dosage 80 g/ha): 100%; Post-emergence action against ALOMY in % (ALOMY [21]; Dosage 320 g/ha): 100%; Pre-emergence action against MATIN in % (MATIN [22]): 100%
CCOC(=O)[C@@H](C)Oc1nn(-c2cnccn2)c(-c2cncc(F)c2)c1Br [Example I-99]	80	100	100	100	80	80	90	90	80	90	90	90	80	90	90	100	90	100	100	100	Pre-emergence action against LOLRI in % (LOLRI [16]): 100%; Post-emergence action against VERPE in % (VERPE [17]; dosage 80 g/ha): 90%; Post-emergence action against VERPE in % (VERPE [17]; dosage 320 g/ha): 90%; Pre-emergence action against ECHCG in % (ECHCG [18]): 100%; Post-emergence action against ECHCG in % (ECHCG [19]; Dosage 80 g/ha): 90%; Post-emergence action against ECHCG in % (ECHCG [19]; Dosage 320 g/ha): 90%; Post-emergence action against SETVI in % (SETVI [20]; Dosage 80 g/ha): 90%; Post-emergence action against SETVI in % (SETVI [20]; Dosage 320 g/ha): 90%; Post-emergence action against ALOMY in % (ALOMY [21]; Dosage 80 g/ha): 80%; Post-emergence action against ALOMY in % (ALOMY [21]; Dosage 320 g/ha): 100%; Pre-emergence action against MATIN in % (MATIN [22]): 100%
